Six compounds from patent publication US20050215626A1, “Substituted benzofuran oximes” (WYETH, priority 2003, published 2005) can be followed below.

What is called IC50 is the concentration that inhibits the measured activity by half. Lower therefore signals greater potency.

The target of the experiment is human PAI-1 (Homo sapiens, UniProt P05121). Put plainly: Assay for determining the IC50 of inhibition of PAI-1 (active PAI-1 bound to tPA-coated plate, antibody detection). Format: biochemical. Conditions: inhibition of Plasminogen Activator Inhibitor-1; test compounds 1-50 μM incubated with human PAI-1 (50 ng/ml), pH 7.5, human tPA-coated plate. The procedure:
This assay is based upon the non-SDS dissociable interaction between tPA and active PAI-1. Assay plates are initially coated with human tPA (10 μg/ml). Test compounds are dissolved in DMSO at 10 mM, then diluted with physiologic buffer (pH 7.5) to a final concentration of 1-50 μM. The test compounds are incubated with human PAI-1 (50 ng/ml) for 15 minutes at room temperature. The tPA-coated plate is washed with a solution of 0.05% Tween 20 and 0.1% BSA, then the plate is blocked with a solution of 3% BSA. An aliquot of the test compound/PAI-1 solution is then added to the tPA-coated plate, incubated at room temperature for 1 hour, and washed. Active PAI-1 bound to the plate is assessed by adding an aliquot of a 1:1000 dilution of the 33B8 monoclonal antibody against human PAI-1, and incubating the plate at room temperature for 1 hour (Molecular Innovations, Royal Oak, Mich.). The plate is again washed, and a solution of goat anti-mouse IgG-alkaline phosphatase conjugate is added at a 1:50,000 dilution in goat serum. The plate is incubated 30 minutes at room temperature, washed, and a solution of alkaline phosphatase substrate is added. The plate is incubated 45 minutes at room temperature, and color development is determined at OD405 nm. The quantitation of active PAI-1 bound to tPA at varying concentrations of the test compound is used to determine the IC50. Results are analyzed using a logarithmic best-fit equation. The assay sensitivity is 5 ng/mi of human PAI-1 as determined from a standard curve ranging from 0-100 ng/ml.

Sequence of human PAI-1 (P05121 24-402): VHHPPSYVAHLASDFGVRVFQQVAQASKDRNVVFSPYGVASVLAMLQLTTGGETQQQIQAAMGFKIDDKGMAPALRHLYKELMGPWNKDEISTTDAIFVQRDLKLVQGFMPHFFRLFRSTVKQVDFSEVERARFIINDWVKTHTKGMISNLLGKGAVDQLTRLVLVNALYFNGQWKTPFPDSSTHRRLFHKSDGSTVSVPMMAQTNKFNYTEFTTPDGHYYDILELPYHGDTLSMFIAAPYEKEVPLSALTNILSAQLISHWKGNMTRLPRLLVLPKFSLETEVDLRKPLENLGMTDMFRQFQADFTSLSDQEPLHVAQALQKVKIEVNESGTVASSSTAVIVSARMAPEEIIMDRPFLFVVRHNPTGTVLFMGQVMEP

`CCCCc1oc2ccccc2c1/C=N/OCCCOc1ccc(C(=O)O)c(O)c1` [Compound 3, 4-[3({[(1E)-(2-butyl-1-benzofuran-3-yl)methylidene]amino}oxy)propoxy]-2-hydroxybenzoic acid] had an IC50 of 19.2 µM.

`CCCCc1oc2ccccc2c1/C=N/OCCCOc1ccc(C(=O)O)c(NC(=O)c2ccc(C(C)(C)C)cc2)c1` [Compound 1, 4-[3-({[(1E)-(2-butyl-1-benzofuran-3-yl)methylidene]amino}oxy)propoxy]-2-[(4-tert-butylbenzoyl)amino]-benzoic acid]: half-maximal inhibition (IC50) required 44.4 µM.

As to `CCCCc1oc2ccccc2c1/C=N/OCCCOc1ccc(C(=O)O)cc1-c1ccc(C(F)(F)F)cc1` [Compound 6, 6-[3-({[(1E)-(2-butyl-1-benzofuran-3-yl)methylidene]amino}oxy)propoxy]-4′-(trifluoromethyl)-1,1′-biphenyl-3-carboxylic acid], inhibition was half-maximal at 17.5 µM (IC50).

In the case of `CCCCc1oc2ccccc2c1/C=N/OCc1ccc(C(=O)O)c(Br)c1` [Compound 5, 2-bromo-4-[({[(1E)-(2-butyl-1-benzofuran-3-yl)methylidene]amino}oxy)methyl]benzoic acid], inhibition was half-maximal at 29.2 µM (IC50).

With `CCCCc1oc2ccccc2c1/C=N/OCCCOc1ccc(CC(=O)O)cc1` [Compound 2, {4-[3-({[(1E)-(2-butyl-1-benzofuran-3-yl)methylidene]amino}oxy)propoxy]phenyl}acetic acid], 31.4 µM corresponded to half-maximal inhibition (IC50).

Regarding `CCCCc1oc2ccccc2c1/C=N/OCCOc1ccc(C(=O)O)cc1Cl` [Compound 4, 4-[2-({[(1E)-(2-butyl-1-benzofuran-3-yl)methylidene]amino]oxy)ethoxy]-3-chlorobenzoic acid], the IC50 was 24.8 µM.
